The source of these data is article PMC5983484, “A receptor tyrosine kinase ROR1 inhibitor (KAN0439834) induced significant apoptosis of pancreatic cells which was enhanced by erlotinib and ibrutinib” (PLoS ONE, 2018).

The assay has as its target ROR1 (Homo sapiens, UniProt Q01973). Put plainly: Western blot of pROR1 in PaCa-2 cells ([…] h), confirmed by human phospho-RTK array. Type of assay: cell-based.

Where only a bound is given, the exact number is not on record here.

Chain of ROR1 (Q01973 30-937): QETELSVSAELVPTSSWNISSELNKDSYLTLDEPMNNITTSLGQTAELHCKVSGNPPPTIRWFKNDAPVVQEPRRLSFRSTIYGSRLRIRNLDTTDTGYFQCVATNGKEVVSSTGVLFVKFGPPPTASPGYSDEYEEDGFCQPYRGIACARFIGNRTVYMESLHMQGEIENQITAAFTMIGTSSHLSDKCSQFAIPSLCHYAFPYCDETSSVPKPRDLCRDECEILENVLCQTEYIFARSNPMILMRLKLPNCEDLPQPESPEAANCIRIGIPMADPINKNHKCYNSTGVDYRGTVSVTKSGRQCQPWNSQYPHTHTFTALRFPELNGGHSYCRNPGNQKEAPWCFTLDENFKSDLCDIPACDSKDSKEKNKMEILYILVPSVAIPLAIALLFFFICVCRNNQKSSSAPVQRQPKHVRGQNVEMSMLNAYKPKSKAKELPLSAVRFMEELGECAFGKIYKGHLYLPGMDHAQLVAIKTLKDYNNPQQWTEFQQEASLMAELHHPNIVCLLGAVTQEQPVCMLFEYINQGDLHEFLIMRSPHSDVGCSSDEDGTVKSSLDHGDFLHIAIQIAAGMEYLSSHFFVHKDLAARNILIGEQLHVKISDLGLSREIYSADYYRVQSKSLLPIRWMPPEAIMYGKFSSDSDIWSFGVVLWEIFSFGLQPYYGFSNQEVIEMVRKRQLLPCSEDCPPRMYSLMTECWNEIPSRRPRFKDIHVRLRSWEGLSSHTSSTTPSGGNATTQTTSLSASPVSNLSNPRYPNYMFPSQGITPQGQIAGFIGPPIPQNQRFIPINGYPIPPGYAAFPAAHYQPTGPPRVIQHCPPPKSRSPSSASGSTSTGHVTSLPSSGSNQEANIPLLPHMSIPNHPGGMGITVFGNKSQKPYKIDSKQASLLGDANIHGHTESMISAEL

Regarding KAN0439834, the IC50 was < 100 nM.
